The kinase profiling compilation of Christmann-Franck et al. (2016)

Key:
Assay in all cases: KINOMEscan competition binding
Details in all cases: compound 10.0 µM
EIF2AK1 (human) = EIF2AK1 (human) (UniProt Q9BQI3)
CSNK1G1 (human) = CSNK1G1 (human) (UniProt Q9HCP0)
NIM1 (human) = NIM1 (human) (UniProt Q8IY84)
AURKC (human) = AURKC (human) (UniProt Q9UQB9)
[1] = molecular target: JAK1 JH1 catalytic (human) (UniProt P23458)
HUNK (human) = HUNK (human) (UniProt P57058)
AXL (human) = AXL (human) (UniProt P30530)
[2] = test system: KIT (human), P10721 [V559D/V654A]
Sequence of KIT (human), P10721 [V559D/V654A] (P10721 whole entry V559D/V654A, looked up): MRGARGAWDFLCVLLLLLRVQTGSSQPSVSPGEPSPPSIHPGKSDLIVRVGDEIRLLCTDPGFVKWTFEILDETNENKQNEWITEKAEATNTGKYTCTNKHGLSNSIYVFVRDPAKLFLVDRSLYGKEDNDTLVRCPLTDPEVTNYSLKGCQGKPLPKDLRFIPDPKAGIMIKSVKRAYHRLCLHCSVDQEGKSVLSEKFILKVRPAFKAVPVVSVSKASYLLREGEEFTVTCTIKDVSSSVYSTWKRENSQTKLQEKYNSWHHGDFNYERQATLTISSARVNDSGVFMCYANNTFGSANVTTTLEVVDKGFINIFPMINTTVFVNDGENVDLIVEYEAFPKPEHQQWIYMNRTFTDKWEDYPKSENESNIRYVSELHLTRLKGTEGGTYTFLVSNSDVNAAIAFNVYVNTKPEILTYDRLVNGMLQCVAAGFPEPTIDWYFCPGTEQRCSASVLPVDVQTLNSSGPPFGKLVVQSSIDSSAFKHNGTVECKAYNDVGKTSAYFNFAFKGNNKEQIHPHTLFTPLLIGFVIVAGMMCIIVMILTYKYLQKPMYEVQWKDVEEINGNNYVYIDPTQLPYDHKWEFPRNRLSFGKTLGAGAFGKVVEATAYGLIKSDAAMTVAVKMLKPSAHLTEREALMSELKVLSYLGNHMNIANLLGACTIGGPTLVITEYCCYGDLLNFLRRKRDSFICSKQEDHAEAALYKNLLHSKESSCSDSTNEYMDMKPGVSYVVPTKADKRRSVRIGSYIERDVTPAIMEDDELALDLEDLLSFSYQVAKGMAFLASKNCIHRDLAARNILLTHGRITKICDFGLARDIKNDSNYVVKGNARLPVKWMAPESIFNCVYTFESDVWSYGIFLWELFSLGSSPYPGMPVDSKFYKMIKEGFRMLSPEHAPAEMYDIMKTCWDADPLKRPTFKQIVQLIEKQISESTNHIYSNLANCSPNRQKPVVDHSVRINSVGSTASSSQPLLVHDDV

TESK1 (human) = TESK1 (human) (UniProt Q15569)
ERBB2 (human) = ERBB2 (human) (UniProt P04626)
EPHA7 (human) = EPHA7 (human) (UniProt Q15375)
FLT4 (human) = FLT4 (human) (UniProt P35916)
ULK2 (human) = ULK2 (human) (UniProt Q8IYT8)
NUAK1 (human) = NUAK1 (human) (UniProt O60285)
ACVR1B (human) = ACVR1B (human) (UniProt P36896)
MAP4K4 (human) = MAP4K4 (human) (UniProt O95819)
DYRK2 (human) = DYRK2 (human) (UniProt Q92630)
CDKL1 (human) = CDKL1 (human) (UniProt Q00532)
DMPK (human) = DMPK (human) (UniProt Q09013)
RET (human) = RET (human) (UniProt P07949)
CAMK1G (human) = CAMK1G (human) (UniProt Q96NX5)
MAST1 (human) = MAST1 (human) (UniProt Q9Y2H9)
RIPK4 (human) = RIPK4 (human) (UniProt P57078)
Sequence of RIPK4 (human) (P57078 whole entry, looked up): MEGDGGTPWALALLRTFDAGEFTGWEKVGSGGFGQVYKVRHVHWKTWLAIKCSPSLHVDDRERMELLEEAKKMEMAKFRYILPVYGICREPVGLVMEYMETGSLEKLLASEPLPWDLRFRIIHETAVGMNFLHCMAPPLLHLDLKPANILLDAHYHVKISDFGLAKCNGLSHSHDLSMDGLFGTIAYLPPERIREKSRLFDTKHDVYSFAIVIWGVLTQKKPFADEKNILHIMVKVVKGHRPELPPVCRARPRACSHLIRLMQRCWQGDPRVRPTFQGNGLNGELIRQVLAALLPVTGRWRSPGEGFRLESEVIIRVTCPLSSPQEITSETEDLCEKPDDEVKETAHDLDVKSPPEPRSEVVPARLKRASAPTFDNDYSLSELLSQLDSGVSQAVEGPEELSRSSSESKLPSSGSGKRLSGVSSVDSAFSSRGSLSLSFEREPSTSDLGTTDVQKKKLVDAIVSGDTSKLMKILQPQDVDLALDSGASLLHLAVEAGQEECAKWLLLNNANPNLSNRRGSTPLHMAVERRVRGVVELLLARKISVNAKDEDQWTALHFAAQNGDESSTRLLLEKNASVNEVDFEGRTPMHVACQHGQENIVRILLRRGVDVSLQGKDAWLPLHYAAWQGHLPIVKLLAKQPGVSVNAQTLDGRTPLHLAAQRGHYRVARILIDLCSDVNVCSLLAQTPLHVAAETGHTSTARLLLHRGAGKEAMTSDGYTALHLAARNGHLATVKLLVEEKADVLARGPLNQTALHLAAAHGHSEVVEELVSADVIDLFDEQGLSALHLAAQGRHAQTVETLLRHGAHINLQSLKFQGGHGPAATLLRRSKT

EPHA4 (human) = EPHA4 (human) (UniProt P54764)
CPK1 (P.falciparum) = test system: CPK1 (P.falciparum)
PRKAA2 (human) = PRKAA2 (human) (UniProt P54646)
MAK (human) = MAK (human) (UniProt P20794)
DYRK1B (human) = DYRK1B (human) (UniProt Q9Y463)
PRKCI (human) = PRKCI (human) (UniProt P41743)
CSNK1A1 (human) = CSNK1A1 (human) (UniProt P48729)
FES (human) = FES (human) (UniProt P07332)
HIPK1 (human) = HIPK1 (human) (UniProt Q86Z02)
MAPK7 (human) = MAPK7 (human) (UniProt Q13164)
PRKG1 (human) = PRKG1 (human) (UniProt Q13976)
TAOK3 (human) = TAOK3 (human) (UniProt Q9H2K8)
ABL2 (human) = ABL2 (human) (UniProt P42684)
Sequence of ABL2 (human) (P42684 whole entry, looked up): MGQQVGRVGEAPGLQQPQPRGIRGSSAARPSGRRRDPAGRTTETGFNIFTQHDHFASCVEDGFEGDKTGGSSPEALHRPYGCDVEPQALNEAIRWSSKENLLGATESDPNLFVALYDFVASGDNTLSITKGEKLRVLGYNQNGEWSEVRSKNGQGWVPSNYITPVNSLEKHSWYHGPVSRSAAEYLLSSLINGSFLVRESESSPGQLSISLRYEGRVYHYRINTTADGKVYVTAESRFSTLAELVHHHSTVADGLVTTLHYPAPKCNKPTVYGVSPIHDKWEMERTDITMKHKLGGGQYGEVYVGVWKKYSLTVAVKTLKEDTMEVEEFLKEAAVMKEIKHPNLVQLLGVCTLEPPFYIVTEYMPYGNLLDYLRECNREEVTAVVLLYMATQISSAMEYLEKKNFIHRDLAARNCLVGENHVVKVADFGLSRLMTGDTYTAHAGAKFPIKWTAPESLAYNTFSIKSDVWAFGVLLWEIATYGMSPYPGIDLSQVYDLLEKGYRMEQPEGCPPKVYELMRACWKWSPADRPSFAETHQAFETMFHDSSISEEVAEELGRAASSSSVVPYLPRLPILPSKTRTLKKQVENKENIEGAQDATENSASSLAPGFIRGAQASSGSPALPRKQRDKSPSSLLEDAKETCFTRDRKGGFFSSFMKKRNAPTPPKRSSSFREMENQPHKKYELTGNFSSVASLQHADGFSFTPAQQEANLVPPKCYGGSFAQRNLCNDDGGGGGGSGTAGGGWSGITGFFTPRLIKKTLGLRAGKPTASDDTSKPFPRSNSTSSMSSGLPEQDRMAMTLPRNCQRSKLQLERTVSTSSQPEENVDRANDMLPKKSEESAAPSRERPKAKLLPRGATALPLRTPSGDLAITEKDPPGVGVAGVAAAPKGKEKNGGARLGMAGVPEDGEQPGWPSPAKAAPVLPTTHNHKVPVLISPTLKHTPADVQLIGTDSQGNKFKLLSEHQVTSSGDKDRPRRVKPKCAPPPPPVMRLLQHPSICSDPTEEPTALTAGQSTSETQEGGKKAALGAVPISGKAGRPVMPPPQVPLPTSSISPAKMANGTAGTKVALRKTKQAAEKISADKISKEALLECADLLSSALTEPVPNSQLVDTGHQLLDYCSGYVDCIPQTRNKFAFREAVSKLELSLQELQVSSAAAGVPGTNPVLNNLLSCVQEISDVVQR

[3] = test system: KIT (human), P10721 [V559D]
Sequence of KIT (human), P10721 [V559D] (P10721 whole entry V559D, looked up): as the sequence (P10721 whole entry V559D/V654A, looked up) above, with A654V counted along it

AURKB (human) = AURKB (human) (UniProt Q96GD4)
MAP4K1 (human) = MAP4K1 (human) (UniProt Q92918)
Sequence of MAP4K1 (human) (Q92918 whole entry, looked up): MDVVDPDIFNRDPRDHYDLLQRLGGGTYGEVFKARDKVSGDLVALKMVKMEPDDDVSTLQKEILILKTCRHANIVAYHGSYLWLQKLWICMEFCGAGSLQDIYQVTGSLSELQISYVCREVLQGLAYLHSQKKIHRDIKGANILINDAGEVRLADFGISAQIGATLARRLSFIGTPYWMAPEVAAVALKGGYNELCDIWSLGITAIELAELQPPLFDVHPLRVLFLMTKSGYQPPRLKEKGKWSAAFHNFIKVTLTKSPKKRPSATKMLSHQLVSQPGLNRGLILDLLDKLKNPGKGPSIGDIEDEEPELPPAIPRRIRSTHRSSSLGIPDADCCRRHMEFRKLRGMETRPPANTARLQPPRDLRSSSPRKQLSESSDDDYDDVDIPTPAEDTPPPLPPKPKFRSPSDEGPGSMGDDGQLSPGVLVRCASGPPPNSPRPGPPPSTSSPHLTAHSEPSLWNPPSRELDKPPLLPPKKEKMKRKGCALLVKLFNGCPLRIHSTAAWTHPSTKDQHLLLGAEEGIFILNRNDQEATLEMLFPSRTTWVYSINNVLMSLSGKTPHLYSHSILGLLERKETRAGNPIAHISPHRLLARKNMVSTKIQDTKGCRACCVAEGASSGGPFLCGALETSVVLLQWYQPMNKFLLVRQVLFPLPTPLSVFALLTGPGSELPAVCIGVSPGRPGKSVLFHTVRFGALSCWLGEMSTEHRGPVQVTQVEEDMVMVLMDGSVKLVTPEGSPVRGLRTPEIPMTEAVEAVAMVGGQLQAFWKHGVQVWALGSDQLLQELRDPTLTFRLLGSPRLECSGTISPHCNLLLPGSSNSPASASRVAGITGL

GRK4 (human) = GRK4 (human) (UniProt P32298)
SYK (human) = SYK (human) (UniProt P43405)
BRSK1 (human) = BRSK1 (human) (UniProt Q8TDC3)

Sequence of JAK1 JH1 catalytic (human) (P23458 whole entry, looked up): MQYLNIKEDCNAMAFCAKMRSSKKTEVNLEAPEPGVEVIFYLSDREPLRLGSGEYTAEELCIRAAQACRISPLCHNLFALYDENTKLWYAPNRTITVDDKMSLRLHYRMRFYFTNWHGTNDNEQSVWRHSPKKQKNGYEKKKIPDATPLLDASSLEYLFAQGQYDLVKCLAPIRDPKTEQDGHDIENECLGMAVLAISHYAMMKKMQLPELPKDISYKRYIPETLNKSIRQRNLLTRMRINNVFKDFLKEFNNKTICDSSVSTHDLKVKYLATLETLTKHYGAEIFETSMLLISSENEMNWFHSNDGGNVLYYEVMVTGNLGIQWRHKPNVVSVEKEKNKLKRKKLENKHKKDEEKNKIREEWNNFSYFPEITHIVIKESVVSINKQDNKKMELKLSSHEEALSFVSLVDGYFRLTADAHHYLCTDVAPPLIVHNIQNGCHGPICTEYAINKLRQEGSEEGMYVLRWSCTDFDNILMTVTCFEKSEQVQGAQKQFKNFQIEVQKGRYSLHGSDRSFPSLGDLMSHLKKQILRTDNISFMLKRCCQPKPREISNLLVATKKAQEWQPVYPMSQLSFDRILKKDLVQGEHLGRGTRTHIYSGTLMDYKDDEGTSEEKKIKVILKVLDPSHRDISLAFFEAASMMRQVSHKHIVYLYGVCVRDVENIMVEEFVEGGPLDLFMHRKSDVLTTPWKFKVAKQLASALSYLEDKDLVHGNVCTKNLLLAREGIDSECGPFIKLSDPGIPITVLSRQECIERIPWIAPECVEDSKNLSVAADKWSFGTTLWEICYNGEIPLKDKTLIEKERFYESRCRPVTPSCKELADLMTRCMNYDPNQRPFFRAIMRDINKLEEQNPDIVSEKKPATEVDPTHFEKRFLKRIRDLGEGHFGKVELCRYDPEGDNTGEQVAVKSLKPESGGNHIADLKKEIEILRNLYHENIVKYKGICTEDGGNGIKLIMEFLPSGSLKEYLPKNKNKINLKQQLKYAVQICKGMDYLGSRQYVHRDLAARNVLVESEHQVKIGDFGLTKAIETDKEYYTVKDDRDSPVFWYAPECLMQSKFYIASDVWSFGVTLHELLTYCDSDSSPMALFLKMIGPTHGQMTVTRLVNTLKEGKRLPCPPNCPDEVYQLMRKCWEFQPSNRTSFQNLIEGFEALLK

## Cc1cc([C@@H](C)Nc2ccccc2C(=O)O)c2nc(N3CCOCC3)cc(=O)n2c1
EIF2AK1 (human)
  kinase still bound, per cent of control: 100%
CSNK1G1 (human)
  kinase still bound, per cent of control: 77%
NIM1 (human)
  kinase still bound, per cent of control: 100%
AURKC (human)
  kinase still bound, per cent of control: 91%
[1]
  kinase still bound, per cent of control: 70%
HUNK (human)
  kinase still bound, per cent of control: 94%
AXL (human)
  kinase still bound, per cent of control: 100%
[2]
  kinase still bound, per cent of control: 100%
TESK1 (human)
  kinase still bound, per cent of control: 100%
ERBB2 (human)
  kinase still bound, per cent of control: 96%
EPHA7 (human)
  kinase still bound, per cent of control: 87%
FLT4 (human)
  kinase still bound, per cent of control: 100%
ULK2 (human)
  kinase still bound, per cent of control: 100%
NUAK1 (human)
  kinase still bound, per cent of control: 100%
ACVR1B (human)
  kinase still bound, per cent of control: 100%
MAP4K4 (human)
  kinase still bound, per cent of control: 98%
DYRK2 (human)
  kinase still bound, per cent of control: 72%
CDKL1 (human)
  kinase still bound, per cent of control: 100%
DMPK (human)
  kinase still bound, per cent of control: 95%
RET (human)
  kinase still bound, per cent of control: 96%
CAMK1G (human)
  kinase still bound, per cent of control: 100%
MAST1 (human)
  kinase still bound, per cent of control: 54%
RIPK4 (human)
  kinase still bound, per cent of control: 87%
EPHA4 (human)
  kinase still bound, per cent of control: 91%
CPK1 (P.falciparum)
  kinase still bound, per cent of control: 75%
PRKAA2 (human)
  kinase still bound, per cent of control: 91%
MAK (human)
  kinase still bound, per cent of control: 100%
DYRK1B (human)
  kinase still bound, per cent of control: 100%
PRKCI (human)
  kinase still bound, per cent of control: 94%
CSNK1A1 (human)
  kinase still bound, per cent of control: 100%
FES (human)
  kinase still bound, per cent of control: 100%
HIPK1 (human)
  kinase still bound, per cent of control: 87%
MAPK7 (human)
  kinase still bound, per cent of control: 100%
PRKG1 (human)
  kinase still bound, per cent of control: 79%
TAOK3 (human)
  kinase still bound, per cent of control: 95%
ABL2 (human)
  kinase still bound, per cent of control: 100%
[3]
  kinase still bound, per cent of control: 93%
AURKB (human)
  kinase still bound, per cent of control: 76%
MAP4K1 (human)
  kinase still bound, per cent of control: 90%
GRK4 (human)
  kinase still bound, per cent of control: 80%
SYK (human)
  kinase still bound, per cent of control: 90%
BRSK1 (human)
  kinase still bound, per cent of control: 100%
